# ChEMBL document CHEMBL4359905, “Discovery, structural insight, and bioactivities of BY27 as a selective inhibitor of the second bromodomains of BET proteins” (Eur J Med Chem, 2019)
# Legend:
# [1] = tested on: MV4-11; assay: Antiproliferative activity against human MV4-11 cells assessed as cell growth inhibition after 4 days by CCK8 assay; type: functional, cell-based; conditions: MV4-11, 96 h
# [2] = target: T1, Bromodomain-containing protein 4 (Homo sapiens, UniProt O60885); assay: Binding affinity to human recombinant BRD4 BD1 (44 to 168 residues) by fluorescence polarization assay
# [3] = target: T1, Bromodomain-containing protein 4; assay: Binding affinity to human recombinant BRD4 BD2 (333 to 460 residues) by fluorescence polarization assay
# [4] = tested on: MM1.S; assay: Antiproliferative activity against human MM1S cells assessed as cell growth inhibition after 4 days by CCK8 assay; type: functional, cell-based; conditions: 96 h
IC50 [1] [nM],Ki [2] [nM],Ki [3] [nM],IC50 [4] [nM],SMILES
,725,92.6,,Cc1nnc2n1-c1ccc(-c3ccc(N)nc3)cc1C(Nc1ccc(F)cc1)CC2 (centres undefined)
116,419,24.7,535,Cc1nnc2n1-c1ccc(-c3cnn(C)c3)cc1C(Nc1ccc3ccccc3c1)CC2 (centres undefined)
,508,80.6,,Cc1nnc2n1-c1ccc(-c3ccc(N)nc3)cc1C(Nc1ccc(C#N)cc1)CC2 (centres undefined)
,712,41.5,,Cc1nnc2n1-c1ccc(-c3ccc(N)nc3)cc1C(Nc1cccc3ccccc13)CC2 (centres undefined)
401,726,66.2,1020,Cc1nnc2n1-c1ccc(-c3cnc(N)nc3)cc1C(Nc1ccc(Cl)cc1)CC2 (centres undefined)
2040,> 2000,736,5310,Cc1nnc2n1-c1ccc(Br)cc1C(Nc1ccc(Cl)cc1)CC2 (racemic)
143,310,68.8,132,Cc1nnc2n1-c1ccc(-c3ccc4c(c3)CCC(=O)N4)cc1C(Nc1ccc(Cl)cc1)CC2 (centres undefined)
,540,109,,Cc1ccc(NC2CCc3nnc(C)n3-c3ccc(-c4ccc(N)nc4)cc32)cc1 (centres undefined)
500,535,74.7,345,Cc1nnc2n1-c1ccc(-c3ccnc(N)c3)cc1C(Nc1ccc(Cl)cc1)CC2 (centres undefined)
,1960,376,,Cc1nnc2n1-c1ccc(-c3ccc(N)nc3)cc1C(Nc1cc(C3CC3)nn1C)CC2 (centres undefined)
6560,232,83.7,7720,Cc1nnc2n1-c1ccc(-c3cnoc3)cc1C(Nc1ccc(Cl)cc1)CC2 (centres undefined)
4330,11100,1230,7950,Cc1nnc2n1-c1ccc(N)cc1C(Nc1ccc(Cl)cc1)CC2 (centres undefined)
1950,466,65.4,1020,Cc1nnc2n1-c1ccc(-c3ccc(N(C)C)cc3)cc1C(Nc1ccc(Cl)cc1)CC2 (centres undefined)
3260,247,47.3,7060,Cc1nnc2n1-c1ccc(-c3ccc(C(=O)O)cc3)cc1C(Nc1ccc(Cl)cc1)CC2 (centres undefined)
70.8,115,17.4,210,Cc1nnc2n1-c1ccc(-c3ccc(N4CCN(C)CC4)cc3)cc1C(Nc1ccc(Cl)cc1)CC2 (centres undefined)
4820,3350,918,9060,Cc1nnc2n1-c1ccc(NS(C)(=O)=O)cc1C(Nc1ccc(Cl)cc1)CC2 (centres undefined)
374,266,34.8,345,Cc1nnc2n1-c1ccc(-c3cncs3)cc1C(Nc1ccc(Cl)cc1)CC2 (centres undefined)
,1910,174,,COc1ccc(NC2CCc3nnc(C)n3-c3ccc(-c4ccc(N)nc4)cc32)cc1 (centres undefined)
1030,457,50.3,1440,CC(=O)Nc1ccc2c(c1)C(Nc1ccc(Cl)cc1)CCc1nnc(C)n1-2 (centres undefined)
,636,68.4,,Cc1nnc2n1-c1ccc(-c3ccc(N)nc3)cc1C(Nc1ccc(Cl)cc1)CC2 (centres undefined)
,576,147,,Cc1nnc2n1-c1ccc(-c3ccc(N)nc3)cc1C(Nc1ccc(C(F)(F)F)cc1)CC2 (centres undefined)
165,372,54.4,258,Cc1nnc2n1-c1ccc(-c3ccc(CCN4CCN(C)CC4)cc3)cc1C(Nc1ccc(Cl)cc1)CC2 (centres undefined)
,10600,617,,Cc1nnc2n1-c1ccc(-c3ccc(N)nc3)cc1C(Nc1nn(C)c3ccccc13)CC2 (centres undefined)
,1960,128,,Cc1nnc2n1-c1ccc(-c3ccc(N)nc3)cc1C(Nc1cccc(CO)c1)CC2 (centres undefined)

SMILES,IC50 [1] [nM],Ki [2] [nM],Ki [3] [nM],IC50 [4] [nM]
Cc1nnc2n1-c1ccc(C3=CCN(C)CC3)cc1C(Nc1ccc(Cl)cc1)CC2 (centres undefined),1780,4320,413,3240
Cc1nnc2n1-c1ccc(C3=CCNCC3)cc1C(Nc1ccc(Cl)cc1)CC2 (centres undefined),2290,4450,284,5700
